Counter-ions that a name gives are not always drawn.
Tested on: PRKACA-PRKAR2A interaction (SmBiT-PRKACA / LgBiT-PRKAR2A), protein kinase A
Parameters: NanoLuc complementation counter-screen in cell extract, PRKACA with PRKAR2A, loss of luminescence, detects NanoLuc interference
Settings: counter-screen for NanoLuc interference; 0.5 h, 20 µM; inhibitor

CO/N=C(\C(=O)N[C@@H]1C(=O)N2C(C(=O)O)=C(COC(C)=O)CS[C@H]12)c1csc(N)n1 [UM0133637:02, Cefotaxime (sodium salt)]
Inh (PKA): 1.378%

CC[C@@]1(O)C(=O)OCc2c1cc1n(c2=O)Cc2cc3ccccc3nc2-1 [UM0133648:02, Camptothecin]
Inh (PKA): 1.997%

COCCOC(=O)C1=C(C)NC(C)=C(C(=O)OC/C=C/c2ccccc2)C1c1cccc([N+](=O)[O-])c1 (stereo not shown) [UM0133650:02, Cilnidipine]
Inh (PKA): 81.64%

CCCCCCCCCCCC1=C(O)C(=O)C=C(O)C1=O [UM0133662:02, Embelin]
Inh (PKA): 15.52%

CC(C)=CC[C@@H](O)C1=CC(=O)c2c(O)ccc(O)c2C1=O [UM0133665:02, Shikonin]
Inh (PKA): 46.09%

Nc1ccn([C@H]2CC[C@@H](CO)O2)c(=O)n1 [UM0133684:02, Zalcitabine]
Inh (PKA): -0.04839%

CC(C)(C)NC(=O)[C@H]1CC[C@H]2[C@@H]3CC[C@H]4NC(=O)C=C[C@]4(C)[C@H]3CC[C@]12C [UM0133719:02, Finasteride]
Inh (PKA): 1.602%

COCCCC/C(=N\OCCN)c1ccc(C(F)(F)F)cc1 [UM0133722:02, Fluvoxamine maleate]
Inh (PKA): 2.345%

O=c1[nH]cc(F)c(=O)[nH]1 [UM0133724:03, Fluorouracil (Adrucil)]
Inh (PKA): 1.181%

O=C(/C=C/c1ccc(O)c(O)c1)OCCc1ccccc1 [UM0133732:02, Caffeic Acid Phenethyl Ester]
Inh (PKA): 43.72%

C[C@H]1CCC/C=C/[C@@H]2C[C@H](O)C[C@H]2[C@H](O)/C=C/C(=O)O1 [UM0133745:02, Brefeldin A]
Inh (PKA): 1.414%

O=c1c(-c2ccc(O)cc2)coc2cc(O)cc(O)c12 [UM0133748:02, Genistein]
Inh (PKA): 59.26%

CC1=C(/C=C/C(C)=C/C=C/C(C)=C\C(=O)O)C(C)(C)CCC1 [UM0133752:04, Isotretinoin]
Inh (PKA): 16.35%

CC1(C)CCC2=C(O1)c1ccccc1C(=O)C2=O [UM0133760:02, Beta-Lapachone]
Inh (PKA): 9.4%

CO[C@@]12[C@H](COC(N)=O)C3=C(C(=O)C(C)=C(N)C3=O)N1C[C@@H]1N[C@@H]12 [UM0133761:02, Mitomycin C]
Inh (PKA): 0.5965%

COc1cccc2c1C(=O)c1c(O)c3c(c(O)c1C2=O)C[C@@](O)(C(=O)CO)C[C@@H]3O[C@H]1C[C@H](N)[C@H](O)[C@H](C)O1 [UM0133765:03, Doxorubicin]
Inh (PKA): 45.98%

CC1=C2C[C@H]3[C@@H](CC=C4C[C@@H](O)CC[C@@]43C)[C@@H]2CC[C@]12O[C@@H]1C[C@H](C)CN[C@H]1[C@H]2C [UM0133766:02, Cyclopamine]
Inh (PKA): 2.445%

CN1CCC(=C2c3ccccc3CC(=O)c3sccc32)CC1 [UM0133795:02, Ketotifen Fumarate]
Inh (PKA): 5.692%

C/C(O)=C(\C#N)C(=O)Nc1cc(Br)ccc1Br [UM0133802:02, LFM-A13]
Inh (PKA): 54.46%

Cc1ccc(Cl)c(Nc2ccccc2C(=O)O)c1Cl [UM0133818:02, Meclofenamate Sodium]
Inh (PKA): 21.07%

Cc1[nH]c(=O)c(C#N)cc1-c1ccncc1 [UM0133819:02, Milrinone]
Inh (PKA): -0.01503%

O=c1cc(-c2ccc(O)cc2)oc2cc(O)cc(O)c12 [UM0133861:02, Apigenin]
Inh (PKA): 24.67%

COc1ccc(-c2coc3cc(O)cc(O)c3c2=O)cc1 [UM0133867:02, Biochanin A]
Inh (PKA): 69.13%

O=C(/C=C/c1ccc(O)c(O)c1)c1ccc(O)cc1O [UM0133869:02, Butein]
Inh (PKA): 52.51%

O=c1cc(-c2ccc(O)c(O)c2)oc2cc(O)cc(O)c12 [UM0133934:02, Luteolin]
Inh (PKA): 25.55%

O=c1c(O)c(-c2cc(O)c(O)c(O)c2)oc2cc(O)cc(O)c12 [UM0133944:02, Myricetin]
Inh (PKA): 47.98%

CC1=CC(=O)c2c(O)cccc2C1=O [UM0133960:02, Plumbagin]
Inh (PKA): 19.95%

C[C@H]1COC2=C1C(=O)C(=O)c1c2ccc2c1CCCC2(C)C [UM0134017:02, Cryptotanshinone]
Inh (PKA): 20.28%

— publication PMC9995496, “A screen for MeCP2-TBL1 interaction inhibitors using a luminescence-based assay” (Scientific Reports, 2023)
